# Assay results: ChEMBL document CHEMBL5143593 (Eur J Med Chem, 2022)
# Calls of active or inactive are those of the source. The calls are words filed in the database; no cut-off is given here.
# What was measured:
# [1] = target: 5-hydroxytryptamine receptor 7 (Homo sapiens, UniProt P34969); assay: Displacement of [3H]-5-CT from human 5-HT7b receptor expressed in HEK293 cells measured after 1 hr by Microbeta plate reader method; format: cell-based
# [2] = target: T1, 5-hydroxytryptamine receptor 1A (Homo sapiens, UniProt P08908); assay: Displacement of [3H]-8-OH-DPAT from human 5-HT1A receptor expressed in HEK293 cells measured after 1 hr by Microbeta plate reader method; format: cell-based
# T1 sequence (P08908 whole entry): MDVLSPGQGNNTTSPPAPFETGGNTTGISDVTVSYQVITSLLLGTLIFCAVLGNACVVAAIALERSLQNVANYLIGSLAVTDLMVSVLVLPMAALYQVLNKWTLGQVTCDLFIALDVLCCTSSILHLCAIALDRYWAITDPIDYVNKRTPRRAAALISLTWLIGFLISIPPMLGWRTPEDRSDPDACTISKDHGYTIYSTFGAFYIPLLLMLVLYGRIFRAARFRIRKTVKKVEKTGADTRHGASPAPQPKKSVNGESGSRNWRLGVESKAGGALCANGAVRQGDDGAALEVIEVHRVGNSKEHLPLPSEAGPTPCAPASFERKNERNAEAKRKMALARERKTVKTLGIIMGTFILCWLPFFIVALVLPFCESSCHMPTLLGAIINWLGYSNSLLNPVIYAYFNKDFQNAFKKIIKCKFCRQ
# D(2) dopamine receptor = D(2) dopamine receptor (Homo sapiens, UniProt P14416); assay: Displacement of [3H]-raclopride from human D2L receptor expressed in HEK293 cells measured after 1 hr by Microbeta plate reader method; format: cell-based
# [3] = target: T2, 5-hydroxytryptamine receptor 3A (Homo sapiens) (UniProt P46098); assay: Competitive binding affinity towards 5-HT3 receptor (unknown origin); details: filed as antagonist
# T2 sequence (whole entry): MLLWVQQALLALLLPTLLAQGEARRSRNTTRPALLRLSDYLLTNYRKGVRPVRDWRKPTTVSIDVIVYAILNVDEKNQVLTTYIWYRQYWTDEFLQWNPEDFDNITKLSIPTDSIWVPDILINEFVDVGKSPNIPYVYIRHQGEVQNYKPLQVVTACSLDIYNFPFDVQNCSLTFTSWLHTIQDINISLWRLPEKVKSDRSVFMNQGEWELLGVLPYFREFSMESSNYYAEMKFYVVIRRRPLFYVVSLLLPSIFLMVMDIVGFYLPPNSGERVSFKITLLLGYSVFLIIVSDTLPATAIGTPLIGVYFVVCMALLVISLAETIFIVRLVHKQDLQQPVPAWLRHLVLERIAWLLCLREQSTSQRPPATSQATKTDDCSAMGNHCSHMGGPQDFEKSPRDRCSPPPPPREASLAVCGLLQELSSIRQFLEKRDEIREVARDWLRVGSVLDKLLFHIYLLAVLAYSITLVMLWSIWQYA
# [4] = Permeability of compound at pH 7.4 by PAMPA assay
# [5] = target: 5-hydroxytryptamine receptor 2A (Homo sapiens, UniProt P28223); assay: Displacement of [3H]-ketanserin from human 5-HT2A receptor expressed in CHO-K1 cells measured after 1.5 hrs by Microbeta plate reader method; format: cell-based
# [6] = target: T3, 5-hydroxytryptamine receptor 3A (Cavia porcellus, UniProt O70212); assay: Antagonist activity at 5-HT3 receptor in guinea-pig ileum assessed as inhibition of 5HT-induced contraction; format: tissue-based
# T3 sequence (O70212 whole entry): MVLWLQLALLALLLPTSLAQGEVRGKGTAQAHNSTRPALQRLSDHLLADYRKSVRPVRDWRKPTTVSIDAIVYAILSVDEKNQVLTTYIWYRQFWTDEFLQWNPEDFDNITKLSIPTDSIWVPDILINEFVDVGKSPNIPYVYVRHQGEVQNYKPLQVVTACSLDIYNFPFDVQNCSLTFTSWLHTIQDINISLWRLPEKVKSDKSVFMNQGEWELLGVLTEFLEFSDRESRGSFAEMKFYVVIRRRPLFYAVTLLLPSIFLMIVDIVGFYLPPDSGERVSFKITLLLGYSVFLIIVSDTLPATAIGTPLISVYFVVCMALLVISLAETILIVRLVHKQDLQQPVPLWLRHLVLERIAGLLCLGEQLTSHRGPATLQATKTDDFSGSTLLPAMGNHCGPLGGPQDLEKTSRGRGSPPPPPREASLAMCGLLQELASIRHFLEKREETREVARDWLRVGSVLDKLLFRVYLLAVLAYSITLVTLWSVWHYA
# [7] = Cytotoxicity against CHO-K1 cells measured after 24 hrs by MTT assay; format: toxicity, cell-based, Cricetulus griseus; details: Chinese hamster
# [8] = Toxicity in male Wistar rat assessed as effect on creatine kinase level in plasma at 2 mg/kg, ip; format: organism-based; details: in vivo
# [9] = AUC in male Wistar rat brain at 2 mg/kg, ip; format: ADME, organism-based; design: dose 2 mg/kg, route ip; details: in vivo
# [10] = Half-life in male Wistar rat plasma at 2 mg/kg, ip; format: ADME, organism-based
# [11] = Toxicity in male Wistar rat assessed as adverse effects at 2 mg/kg, ip; format: organism-based; details: in vivo
# [12] = MRT in male Wistar rat brain at 2 mg/kg, ip; format: ADME, organism-based
# [13] = MRT in male Wistar rat plasma at 2 mg/kg, ip; format: ADME, organism-based
# [14] = Cmax in male Wistar rat brain at 2 mg/kg, ip; format: ADME, organism-based; design: dose 2 mg/kg, route ip
# [15] = Toxicity in male Wistar rat assessed as abnormalities in liver at 2 mg/kg, ip; format: organism-based; details: in vivo
# [16] = Tmax in male Wistar rat plasma at 2 mg/kg, ip; format: ADME, organism-based
# [17] = AUC in male Wistar rat plasma at 2 mg/kg, ip; format: ADME, organism-based; design: dose 2 mg/kg, route ip; details: in vivo
# [18] = Tmax in male Wistar rat brain at 2 mg/kg, ip; format: ADME, organism-based
# [19] = Toxicity in male Wistar rat assessed as abnormalities in kidney at 2 mg/kg, ip; format: organism-based; details: in vivo
# [20] = Half-life in male Wistar rat brain at 2 mg/kg, ip; format: ADME, organism-based
# [21] = Toxicity in male Wistar rat assessed as maximum tolerated dose administered intraperitoneally; details: in vivo, route ip
# [22] = Toxicity in male Wistar rat assessed as effect on ALT level at 2 mg/kg, ip; format: organism-based; details: in vivo
# [23] = Cmax in male Wistar rat plasma at 2 mg/kg, ip; format: ADME, organism-based; design: dose 2 mg/kg, route ip
# [24] = Toxicity in male Wistar rat assessed as effect on AST level at 2 mg/kg, ip; format: organism-based; details: in vivo
# Rattus norvegicus [25] = assay: Antipsychotic activity in male Wistar rat assessed as inhibition of amphetamine-stimulated locomotor activity at 1 mg/kg, ip; format: functional, organism-based
# [26] = Cytotoxicity against HEK293 cells measured after 24 hrs by MTT assay; format: toxicity, cell-based; details: human
# Rattus norvegicus [27] = assay: Antipsychotic activity in male Wistar rat assessed as restoration of prepulse inhibition of acoustic startle response at 1 mg/kg, ip; format: functional, organism-based
# 5-hydroxytryptamine receptor 2A, sequence (P28223 whole entry): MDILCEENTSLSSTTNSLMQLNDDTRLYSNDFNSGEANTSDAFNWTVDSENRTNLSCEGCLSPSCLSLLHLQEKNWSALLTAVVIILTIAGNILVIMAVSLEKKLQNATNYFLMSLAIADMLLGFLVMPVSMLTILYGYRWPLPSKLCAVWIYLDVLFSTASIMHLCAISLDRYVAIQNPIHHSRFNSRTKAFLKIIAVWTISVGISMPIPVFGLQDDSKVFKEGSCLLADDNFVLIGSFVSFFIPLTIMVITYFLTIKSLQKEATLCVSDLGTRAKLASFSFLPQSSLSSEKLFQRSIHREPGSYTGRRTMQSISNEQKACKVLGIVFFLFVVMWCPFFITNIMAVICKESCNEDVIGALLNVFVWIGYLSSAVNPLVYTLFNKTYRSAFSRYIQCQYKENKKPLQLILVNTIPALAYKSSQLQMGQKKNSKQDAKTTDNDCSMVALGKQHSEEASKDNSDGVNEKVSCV
# D(2) dopamine receptor, sequence (P14416 whole entry): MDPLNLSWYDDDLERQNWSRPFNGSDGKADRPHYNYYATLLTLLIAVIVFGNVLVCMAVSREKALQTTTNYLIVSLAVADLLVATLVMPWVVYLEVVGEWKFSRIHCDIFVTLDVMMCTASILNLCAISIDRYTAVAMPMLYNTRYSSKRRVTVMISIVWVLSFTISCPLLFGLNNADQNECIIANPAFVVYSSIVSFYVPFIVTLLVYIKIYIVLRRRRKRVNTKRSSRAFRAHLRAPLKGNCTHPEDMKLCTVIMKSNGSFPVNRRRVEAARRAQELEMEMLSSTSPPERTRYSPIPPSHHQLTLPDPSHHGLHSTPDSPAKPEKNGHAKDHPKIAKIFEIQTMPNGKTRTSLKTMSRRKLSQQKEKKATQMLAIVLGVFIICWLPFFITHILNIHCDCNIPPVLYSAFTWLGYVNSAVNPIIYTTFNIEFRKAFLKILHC
# 5-hydroxytryptamine receptor 7, sequence (P34969 whole entry): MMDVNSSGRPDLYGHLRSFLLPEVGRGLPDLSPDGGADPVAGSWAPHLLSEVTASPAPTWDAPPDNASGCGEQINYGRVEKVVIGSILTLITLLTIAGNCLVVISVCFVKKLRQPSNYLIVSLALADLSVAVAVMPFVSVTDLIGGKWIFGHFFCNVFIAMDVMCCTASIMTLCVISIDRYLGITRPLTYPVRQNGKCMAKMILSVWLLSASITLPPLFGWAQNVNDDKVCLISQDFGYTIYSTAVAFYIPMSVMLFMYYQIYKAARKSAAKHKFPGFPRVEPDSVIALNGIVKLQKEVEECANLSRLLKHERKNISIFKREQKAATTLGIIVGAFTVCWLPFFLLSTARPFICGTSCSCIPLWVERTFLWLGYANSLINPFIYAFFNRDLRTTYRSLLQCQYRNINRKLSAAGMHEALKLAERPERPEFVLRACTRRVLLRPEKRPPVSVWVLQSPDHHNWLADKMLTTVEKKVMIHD
compound,measurement,setting,value
Cc1nccn1CC1CCc2c(c3ccccc3n2C)C1=O (configuration not stated) [ONDANSETRON],Ki,[1],> 1 µM
same,Ki,[2],> 10 µM
same,Ki,D(2) dopamine receptor,> 10 µM
same,pKb,[3],7.36
COc1ccc(N2CCN(CCCN3CCN(c4ncccc4C#N)CC3)CC2)cc1,Papp,[4],24 ×10⁻⁶ cm/s
same,Ki,[5],40 µM
same,IC50,[6],3 µM
same,IC50 at 24 h,[7],360 µM
same,Ki,D(2) dopamine receptor,1.5 µM
COc1ccccc1N1CCN(CCCNC(=O)c2cnccn2)CC1,Papp,[4],25 ×10⁻⁶ cm/s
same,Ki,[5],35.8 µM
same,IC50 at 24 h,[7],> 500 µM
same,Ki,D(2) dopamine receptor,0.86 µM
O=C(c1ccccn1)N1CCN(CCCN2CCN(c3cccc(Cl)c3Cl)CC2)CC1,Papp,[4],17 ×10⁻⁶ cm/s
same,Ki,[5],2.3 µM
same,IC50 at 24 h,[7],290 µM
same,Ki,D(2) dopamine receptor,0.082 µM
same,pKb,[3],5.3
COc1ccccc1N1CCN(CCN2CCN(c3ncccc3C#N)CC2)CC1,Papp,[4],14 ×10⁻⁶ cm/s
same,IC50,[6],> 10 µM
same,IC50 at 24 h,[7],780 µM
same,Ki,D(2) dopamine receptor,0.13 µM
CN1CCN(c2nc3ncccc3cc2C#N)CC1,Kb,[6]; read-out: pA2 (converted),0.0398 µM
CN1CCN(C2=Nc3cc(Cl)ccc3Nc3ccccc32)CC1 [CLOZAPINE],IC50,[6],110 µM
N#Cc1cccnc1N1CCN(CCCOc2ccc3c(c2)NC(=O)CC3)CC1,Papp,[4],14 ×10⁻⁶ cm/s
same,Ki,[5],5.3 µM
same,IC50 at 24 h,[7],350 µM
same,Ki,D(2) dopamine receptor,0.081 µM
same,pKb,[3],5
N#Cc1cccnc1N1CCN(CCCN2CCN(c3cccc(Cl)c3Cl)CC2)CC1,Activity,[8],Non-Toxic
same,AUC,[9],88483.21 nmol·min/L
same,half-life,[10],1.67 h
same,Ki,[1],0.57 µM
same,Activity,[11],Non-Toxic
same,MRT,[12],7.65 h
same,MRT,[13],3.79 h
same,Cmax,[14],266 nM
same,Activity,[15],Non-Toxic
same,Papp,[4],5.9 ×10⁻⁶ cm/s
same,Tmax,[16],3 min
same,Ki,[5],0.47 µM
same,AUC,[17],10886.71 nmol·min/L
same,Tmax,[18],1 h
same,Ki,[2],0.019 µM
same,Activity,[19],Non-Toxic
same,half-life,[20],4.39 h
same,IC50,[6],0.3 µM
same,MTD,[21],0.2 mg/kg
same,Activity,[22],Non-Toxic
same,Cmax,[23],97.9 nM
same,Activity,[24],Non-Toxic
O=C(c1ccccc1)N1CCN(CCCN2CCN(c3cccc(Cl)c3Cl)CC2)CC1,Papp,[4],23 ×10⁻⁶ cm/s
same,Ki,[5],1.7 µM
same,IC50,[6],> 3 µM
same,IC50 at 24 h,[7],110 µM
same,Ki,D(2) dopamine receptor,0.12 µM
O=C(c1ccccc1)N1CCN(CCCN2CCN(c3ccccc3)CC2)CC1,Papp,[4],20 ×10⁻⁶ cm/s
same,Ki,[5],6.5 µM
same,IC50 at 24 h,[7],1300 µM
same,Ki,D(2) dopamine receptor,2.1 µM
N#Cc1cccnc1N1CCN(CCN2CCN(c3cccc(Cl)c3Cl)CC2)CC1,Papp,[4],7.9 ×10⁻⁶ cm/s
same,Ki,[5],1.3 µM
same,IC50,[6],1 µM
same,IC50 at 24 h,[7],220 µM
same,Ki,D(2) dopamine receptor,0.21 µM
NS(=O)(=O)c1cc2c(cc1Cl)N=CNS2(=O)=O [CHLOROTHIAZIDE],Papp,[4],0.3 ×10⁻⁶ cm/s
COc1ccc(N2CCN(CCCN3CCN(C(=O)c4ccccc4)CC3)CC2)cc1,Papp,[4],23 ×10⁻⁶ cm/s
same,Ki,[5],30 µM
same,IC50,[6],> 10 µM
same,IC50 at 24 h,[7],> 400 µM
same,Ki,D(2) dopamine receptor,5.5 µM
CN(C)CCCN1c2ccccc2Sc2ccc(Cl)cc21 [CHLORPROMAZINE],Papp,[4],9.6 ×10⁻⁶ cm/s
N#Cc1cccnc1N1CCN(CCCN2CCN(c3ccccc3)CC2)CC1,Papp,[4],25 ×10⁻⁶ cm/s
same,Ki,[5],13 µM
same,IC50,[6],> 3 µM
same,IC50 at 24 h,[7],770 µM
same,Ki,D(2) dopamine receptor,0.77 µM
COc1ccccc1N1CCN(CCCN2CCN(C(=O)c3ccccc3)CC2)CC1,Papp,[4],11 ×10⁻⁶ cm/s
same,Ki,[5],30 µM
same,IC50 at 24 h,[7],1300 µM
same,Ki,D(2) dopamine receptor,0.26 µM
COc1ccccc1N1CCN(CCCN2CCN(C(=O)c3ccccn3)CC2)CC1,Papp,[4],8.7 ×10⁻⁶ cm/s
same,IC50 at 24 h,[7],1900 µM
same,Ki,D(2) dopamine receptor,0.59 µM
N#Cc1cccnc1N1CCN(CCCCOc2ccc3c(c2)NC(=O)CC3)CC1,Papp,[4],12 ×10⁻⁶ cm/s
same,Ki,[5],7.4 µM
same,IC50 at 24 h,[7],1000 µM
same,Ki,D(2) dopamine receptor,2.1 µM
O=C1CCc2ccc(OCCCCN3CCN(c4cccc(Cl)c4Cl)CC3)cc2N1 [ARIPIPRAZOLE],Activity,Rattus norvegicus [25],Active
same,IC50 at 24 h,[26],> 100 µM
same,Activity,Rattus norvegicus [27],Active
same,IC50,[6],630 µM
Cn1nc(C(=O)N2CCN(CCN3CCN(c4cccc(Cl)c4Cl)CC3)CC2)c2ccccc21,Papp,[4],6.8 ×10⁻⁶ cm/s
same,Ki,[5],1.8 µM
same,IC50,[6],1 µM
same,IC50 at 24 h,[7],45 µM
same,Ki,D(2) dopamine receptor,0.13 µM
COc1ccccc1N1CCN(CCN2CCN(C(=O)c3nn(C)c4ccccc34)CC2)CC1,Papp,[4],13 ×10⁻⁶ cm/s
same,Ki,[5],8.3 µM
same,IC50,[6],3 µM
same,IC50 at 24 h,[7],780 µM
same,Ki,D(2) dopamine receptor,0.63 µM
O=C1CCc2ccc(OCCCCN3CCN(C(=O)c4ccccn4)CC3)cc2N1,Papp,[4],9.4 ×10⁻⁶ cm/s
same,Ki,[5],6.9 µM
same,IC50,[6],> 10 µM
same,IC50 at 24 h,[7],89 µM
same,Ki,D(2) dopamine receptor,0.009 µM
